{"source": "patent US6372446B1", "about": "“Method of selectively determining a fungal biomass” (Mycometer ApS, priority 1997, dated 2002)", "format_in_all_cases": "cell-based", "key": {"[1]": {"tested_on": "Aureobasidium pullulans (QM 3092)", "experiment": "Screening of fungi for enzyme activity with 4-methylumbelliferone-labelled substrates", "settings": "substrate 10 μM, 25° C., pH 5"}, "[2]": {"tested_on": "Paecilomyces farinosus (AGM 5)", "experiment": "Screening of fungi for enzyme activity with 4-methylumbelliferone-labelled substrates", "settings": "substrate 10 μM, 25° C., pH 5"}, "[3]": {"tested_on": "Cladosporium herbarum (AGM 8)", "experiment": "Screening of fungi for enzyme activity with 4-methylumbelliferone-labelled substrates", "settings": "substrate 10 μM, 25° C., pH 5"}, "[4]": {"tested_on": "Penicillium commune (IBT 13713)", "experiment": "Screening of fungi for enzyme activity with 4-methylumbelliferone-labelled substrates", "settings": "substrate 10 μM, 25° C., pH 5"}, "[5]": {"tested_on": "Penicillium solitum (IBT 13771)", "experiment": "Screening of fungi for enzyme activity with 4-methylumbelliferone-labelled substrates", "settings": "substrate 10 μM, 25° C., pH 5"}, "[6]": {"tested_on": "Aspergillus oryzae (AGM 11)", "experiment": "Screening of fungi for enzyme activity with 4-methylumbelliferone-labelled substrates", "settings": "substrate 10 μM, 25° C., pH 5"}, "[7]": {"tested_on": "Mucor racemosus (AAS 310)", "experiment": "Screening of fungi for enzyme activity with 4-methylumbelliferone-labelled substrates", "settings": "substrate 10 μM, 25° C., pH 5"}, "[8]": {"tested_on": "Ascobolus crenulatus (AAS 1)", "experiment": "Screening of fungi for enzyme activity with 4-methylumbelliferone-labelled substrates", "settings": "substrate 10 μM, 25° C., pH 5"}, "[9]": {"tested_on": "Trametes versicolor (AGM 24)", "experiment": "Screening of fungi for enzyme activity with 4-methylumbelliferone-labelled substrates", "settings": "substrate 10 μM, 25° C., pH 5"}, "[10]": {"tested_on": "Rhizomucor pusillus (AAS 300)", "experiment": "Screening of fungi for enzyme activity with 4-methylumbelliferone-labelled substrates", "settings": "substrate 10 μM, 25° C., pH 5"}, "[11]": {"tested_on": "Schizophyllum commune (AGM 25)", "experiment": "Screening of fungi for enzyme activity with 4-methylumbelliferone-labelled substrates", "settings": "substrate 10 μM, 25° C., pH 5"}, "[12]": {"tested_on": "Sodaria fimicola (AAS 17)", "experiment": "Screening of fungi for enzyme activity with 4-methylumbelliferone-labelled substrates", "settings": "substrate 10 μM, 25° C., pH 5"}, "Eurotium sp. (AAS 36)": {"tested_on": "Eurotium sp. (AAS 36)", "experiment": "Screening of fungi for enzyme activity with 4-methylumbelliferone-labelled substrates", "settings": "substrate 10 μM, 25° C., pH 5"}, "[13]": {"tested_on": "Aspergillus versicolor (IBT 13738)", "experiment": "Screening of fungi for enzyme activity with 4-methylumbelliferone-labelled substrates", "settings": "substrate 10 μM, 25° C., pH 5"}, "all fungi tested": {"tested_on": "all fungi tested", "experiment": "Screening of a diverse selection of fungi for ability to degrade 11 substrates (summary)", "settings": "mineral medium and vegetable juice medium", "procedure": "A number of fungi representing different taxonomic groupings were screened for enzyme activity. The fungi were grown for in 24 well plates (Nunclon Multidish, Life Technologies A/S) (well volume 3.4 ml) containing 1.5 ml of agarized growth medium. After a growth period of 10 days at 25° C., 1.5 ml citrate-phosphat buffer (pH 5) were added to the wells and one of 11 enzyme substrates were then added to each well and incubated for 5 hours at 25° C. after which the fluorescence of each well was measured. For each fungus two wells were incubated with each enzyme substrate. All substrates were used in a final concentration of 10 μM. The substrate only and the organism plus the agarized medium were included as controls. […] The fungi subjected to the assaying procedure were all obtained from the culture collection of the Department of General Microbiology at the University of Copenhagen, Denmark."}}, "data": [{"smiles": "CC(=O)N[C@H]1[C@H](Oc2ccc3c(C)cc(=O)oc3c2)O[C@H](CO)[C@@H](O[C@@H]2O[C@H](CO)[C@@H](O[C@@H]3O[C@H](CO)[C@@H](O)[C@H](O)[C@H]3NC(C)=O)[C@H](O)[C@H]2NC(C)=O)[C@@H]1O", "note": "[substrate 4, 4-methylumbelliferyl β-D-N,N′,N″triacetylchitotrioside]", "values": [{"measurement": "Enzyme activity: amount of released 4-methylumbelliferone during 5 hours of incubation", "setting": "[1]; Aureobasidium pulluians (QM 3092), vegetable juice medium", "result": "*** (2 ≦ ***)"}, {"measurement": "Enzyme activity: amount of released 4-methylumbelliferone", "setting": "[1]; Aureobasidium pullulans (QM 3092), mineral medium", "result": "*** (2 ≦ ***)"}, {"measurement": "Enzyme activity: amount of released 4-methylumbelliferone", "setting": "[2]; mineral medium", "result": "** (1 ≦ ** 2)"}, {"measurement": "Enzyme activity: amount of released 4-methylumbelliferone during 5 hours of incubation", "setting": "[2]; vegetable juice medium", "result": "*** (2 ≦ ***)"}, {"measurement": "Enzyme activity: amount of released 4-methylumbelliferone", "setting": "[3]; mineral medium", "result": "* (0.4 ≦ * < 1)"}, {"measurement": "Enzyme activity: amount of released 4-methylumbelliferone during 5 hours of incubation", "setting": "[3]; vegetable juice medium", "result": "* (0.4 ≦ * < 1)"}, {"measurement": "Enzyme activity: amount of released 4-methylumbelliferone", "setting": "[4]; mineral medium", "result": 0, "unit": "µmol"}, {"measurement": "Enzyme activity: amount of released 4-methylumbelliferone during 5 hours of incubation", "setting": "[4]; vegetable juice medium", "result": "*** (2 ≦ ***)"}, {"measurement": "Enzyme activity: amount of released 4-methylumbelliferone", "setting": "[5]; mineral medium", "result": "** (1 ≦ ** 2)"}, {"measurement": "Enzyme activity: amount of released 4-methylumbelliferone during 5 hours of incubation", "setting": "[5]; vegetable juice medium", "result": "*** (2 ≦ ***)"}, {"measurement": "Enzyme activity: amount of released 4-methylumbelliferone", "setting": "[6]; mineral medium", "result": "** (1 ≦ ** 2)"}, {"measurement": "Enzyme activity: amount of released 4-methylumbelliferone during 5 hours of incubation", "setting": "[6]; vegetable juice medium", "result": "*** (2 ≦ ***)"}, {"measurement": "Enzyme activity: amount of released 4-methylumbelliferone", "setting": "[7]; mineral medium", "result": "** (1 ≦ ** 2)"}, {"measurement": "Enzyme activity: amount of released 4-methylumbelliferone during 5 hours of incubation", "setting": "[7]; vegetable juice medium", "result": "*** (2 ≦ ***)"}, {"measurement": "Enzyme activity: amount of released 4-methylumbelliferone", "setting": "[8]; mineral medium", "result": "** (1 ≦ ** 2)"}, {"measurement": "Enzyme activity: amount of released 4-methylumbelliferone during 5 hours of incubation", "setting": "[8]; vegetable juice medium", "result": "** (1 ≦ ** 2)"}, {"measurement": "Enzyme activity: amount of released 4-methylumbelliferone", "setting": "[9]; mineral medium", "result": "** (1 ≦ ** 2)"}, {"measurement": "Enzyme activity: amount of released 4-methylumbelliferone during 5 hours of incubation", "setting": "[9]; vegetable juice medium", "result": "*** (2 ≦ ***)"}, {"measurement": "Enzyme activity: amount of released 4-methylumbelliferone", "setting": "[10]; mineral medium", "result": "*** (2 ≦ ***)"}, {"measurement": "Enzyme activity: amount of released 4-methylumbelliferone during 5 hours of incubation", "setting": "[10]; vegetable juice medium", "result": "*** (2 ≦ ***)"}, {"measurement": "Enzyme activity: amount of released 4-methylumbelliferone", "setting": "[11]; mineral medium", "result": "** (1 ≦ ** 2)"}, {"measurement": "Enzyme activity: amount of released 4-methylumbelliferone during 5 hours of incubation", "setting": "[11]; vegetable juice medium", "result": "*** (2 ≦ ***)"}, {"measurement": "Enzyme activity: amount of released 4-methylumbelliferone", "setting": "[12]; mineral medium", "result": "** (1 ≦ ** 2)"}, {"measurement": "Enzyme activity: amount of released 4-methylumbelliferone during 5 hours of incubation", "setting": "[12]; vegetable juice medium", "result": "*** (2 ≦ ***)"}, {"measurement": "Enzyme activity: amount of released 4-methylumbelliferone", "setting": "Eurotium sp. (AAS 36); mineral medium", "result": "** (1 ≦ ** 2)"}, {"measurement": "Enzyme activity: amount of released 4-methylumbelliferone during 5 hours of incubation", "setting": "Eurotium sp. (AAS 36); vegetable juice medium", "result": "** (1 ≦ ** 2)"}, {"measurement": "Enzyme activity: amount of released 4-methylumbelliferone", "setting": "[13]; mineral medium", "result": "* (0.4 ≦ * < 1)"}, {"measurement": "Enzyme activity: amount of released 4-methylumbelliferone during 5 hours of incubation", "setting": "[13]; vegetable juice medium", "result": "*** (2 ≦ ***)"}, {"measurement": "ability to degrade the substrate", "setting": "all fungi tested", "result": "could be demonstrated in all fungi tested"}]}]}
